For this assay, the system named is L1210 leukemia ip in BDF1 mice, survival T/C. Nature of the assay: NCI In Vivo Anticancer Drug Screen. Data for tumor model L1210 Leukemia (intraperitoneal) in B6D2F1 (BDF1) mice. Conditions: endpoint: mean survival time, higher = longer survival. Put shortly: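 Read-out is survival time, reported as the treated-group measurement over the vehicle-control measurement.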

[1] abbreviates: dose: 100.0 mg/kg/injection, schedule: Q01DX009 (ip), vehicle: Klucel (hydroxypropylcellulose) (HPC).
Setting [2] is: dose: 200.0 mg/kg/injection, schedule: Q01DX009 (ip), vehicle: Klucel (hydroxypropylcellulose) (HPC).
[3] abbreviates: dose: 100.0 mg/kg/injection, schedule: Q01DX001 (ip), vehicle: saline.
Where [4] appears, read: dose: 200.0 mg/kg/injection, schedule: Q01DX001 (ip), vehicle: saline.
The mark [5] stands for this setting: dose: 400.0 mg/kg/injection, schedule: Q01DX001 (ip), vehicle: saline.
[6] abbreviates: dose: 100.0 mg/kg/injection, schedule: Q04DX002 (ip), vehicle: Klucel (hydroxypropylcellulose) (HPC).
The mark [7] stands for this setting: dose: 100.0 mg/kg/injection, schedule: Q04DX003 (ip), vehicle: Klucel (hydroxypropylcellulose) (HPC).
The mark [8] stands for this setting: dose: 200.0 mg/kg/injection, schedule: Q04DX003 (ip), vehicle: Klucel (hydroxypropylcellulose) (HPC).
Setting [9] is: dose: 400.0 mg/kg/injection, schedule: Q01DX009 (ip), vehicle: Klucel (hydroxypropylcellulose) (HPC).
[10] abbreviates: dose: 400.0 mg/kg/injection, schedule: Q04DX003 (ip), vehicle: Klucel (hydroxypropylcellulose) (HPC).
The mark [11] stands for this setting: dose: 50.0 mg/kg/injection, schedule: Q01DX001 (ip), vehicle: saline.
[12] abbreviates: dose: 50.0 mg/kg/injection, schedule: Q01DX009 (ip), vehicle: saline with Tween-80.
The mark [13] stands for this setting: dose: 100.0 mg/kg/injection, schedule: Q01DX009 (ip), vehicle: saline with Tween-80.
The mark [14] stands for this setting: dose: 200.0 mg/kg/injection, schedule: Q01DX009 (ip), vehicle: saline with Tween-80.
[15] abbreviates: dose: 200.0 mg/kg/injection, schedule: Q04DX002 (ip), vehicle: Klucel (hydroxypropylcellulose) (HPC).
Where [16] appears, read: dose: 400.0 mg/kg/injection, schedule: Q04DX002 (ip), vehicle: Klucel (hydroxypropylcellulose) (HPC).

“And” between values parts separate entries of the source, which are not always exact repeats. Equal values may be shown once. Toxic doses and inconclusive results are not listed.

As for `CN(C)Cc1cc(C23CC4CC(CC(C4)C2)C3)cc(-c2ccccc2)c1O`, the T/C is 95 % of control (dose: 100.0 mg/kg/injection, schedule: Q04DX003 (ip), vehicle: acetone); 98 % of control (dose: 200.0 mg/kg/injection, schedule: Q04DX003 (ip), vehicle: acetone); 90 % of control (dose: 400.0 mg/kg/injection, schedule: Q04DX003 (ip), vehicle: acetone).

Regarding `O=C(O)CC/C(=N/O)c1ccccc1`, the T/C is, setting by setting: (dose: 50.0 mg/kg/injection, schedule: Q01DX009 (ip), vehicle: Klucel (hydroxypropylcellulose) (HPC)) 93 % of control; under setting [1], 98 % of control; under setting [2], 92 % of control.

`CCC(SC(CC)C(=O)O)C(=O)O` (stereo not drawn): the T/C is 98 % of control under setting [3] and 94 % of control under setting [4].

In the case of `Cc1ccc(Cl)nn1`, the T/C is 108 % of control under setting [3] and 109 % of control under setting [4].

Consider `CC(=O)OC1CC2C(CCC3(C)C(C(C)=O)CCC23)C2(C)CCC(O)C=C12` (stereo not drawn), for which the T/C reads like this: (dose: 75.0 mg/kg/injection, schedule: Q01DX001 (ip), vehicle: other) 101 % of control; (dose: 150.0 mg/kg/injection, schedule: Q01DX001 (ip), vehicle: other) 98 % of control; (dose: 300.0 mg/kg/injection, schedule: Q01DX001 (ip), vehicle: other) 103 % of control.

In the case of `FC(F)(F)c1cccc(N2CCN(c3c4c(nc5ccccc35)CCCCC4)CC2)c1`, the T/C reads like this: under setting [3], 93 % of control; under setting [4], 95 % of control; under setting [5], 95 % of control.

Turning to `c1cc2n(c1)Cc1cc3c(cc1NC2)OCO3`, the T/C by setting is: (dose: 25.0 mg/kg/injection, schedule: Q04DX002 (ip), vehicle: Klucel (hydroxypropylcellulose) (HPC)) 90 % of control; (dose: 50.0 mg/kg/injection, schedule: Q04DX002 (ip), vehicle: Klucel (hydroxypropylcellulose) (HPC)) 86 % of control; under setting [6], 94 % of control.

Consider `c1ccc2c(c1)-c1cccc3cccc-2c13`, for which the T/C was 95 % of control under setting [1]; 95 % of control under setting [7]; 95 % of control under setting [2]; 95 % of control under setting [8]; 101 % of control under setting [9]; 101 % of control under setting [10].

Regarding `CCOC(=O)c1c(C)c(Br)c(O)c(Br)c1O`, the T/C is, setting by setting: under setting [3], 98 % of control; (dose: 100.0 mg/kg/injection, schedule: Q04DX003 (ip), vehicle: other) 86 % of control; under setting [4], 91 % of control; (dose: 200.0 mg/kg/injection, schedule: Q04DX003 (ip), vehicle: other) 100 % of control; under setting [5], 103 % of control; (dose: 400.0 mg/kg/injection, schedule: Q04DX003 (ip), vehicle: other) 106 % of control.

For the molecule `OCC(O)C(O)C(O)C(O)C(c1ccc(Cl)cc1)c1ccc(Cl)cc1` (stereo not drawn), the T/C is 101 % of control and 98 % of control under setting [11]; 101 % of control and 93 % of control and 88 % of control under setting [3]; 95 % of control and 91 % of control under setting [4]; 95 % of control and 96 % of control under setting [5].

As to `COC(=O)C1=CCCCC(N2CCOCC2)=C1C(=O)OC`, the T/C is 97 % of control under setting [3], 101 % of control under setting [4] and 103 % of control under setting [5].

With `O=Cc1cccc(CC(O)(C(F)(F)F)C(F)(F)F)n1`, the T/C (dose: 25.0 mg/kg/injection, schedule: Q01DX009 (ip), vehicle: saline with Tween-80) was 101 % of control; the T/C under setting [12] was 101 % of control; the T/C (dose: 50.0 mg/kg/injection, schedule: Q04DX003 (ip), vehicle: saline with Tween-80) is 91 % of control; the T/C (dose: 100.0 mg/kg/injection, schedule: Q04DX003 (ip), vehicle: saline with Tween-80) was 91 % of control; the T/C (dose: 200.0 mg/kg/injection, schedule: Q04DX003 (ip), vehicle: saline with Tween-80) was 104 % of control.

Regarding `C/C(=C\C(=O)/C=C(\C)NCc1ccccc1)NCc1ccccc1`, the T/C runs as follows: under setting [7], 98 % of control; under setting [8], 100 % of control; under setting [10], 93 % of control.

On to `CC1CN1P(=O)(N1CC=CCC1)N1CC1C` (stereo not drawn), for which the T/C reads like this: under setting [11], 109 % of control; under setting [3], 120 % of control; under setting [4], 101 % of control; under setting [5], 91 % of control.

For `O=NN1CCCNC1=O`, the T/C was 105 % of control (dose: 3.0 mg/kg/injection, schedule: Q01DX Z (ip), vehicle: carboxymethylcellulose (CMC)); 107 % of control (dose: 6.0 mg/kg/injection, schedule: Q01DX Z (ip), vehicle: carboxymethylcellulose (CMC)); 110 % of control (dose: 12.0 mg/kg/injection, schedule: Q01DX Z (ip), vehicle: carboxymethylcellulose (CMC)); 181 % of control (dose: 50.0 mg/kg/injection, schedule: Q01DX Z (ip), vehicle: carboxymethylcellulose (CMC)); 118 % of control (dose: 75.0 mg/kg/injection, schedule: Q01DX Z (ip), vehicle: carboxymethylcellulose (CMC)); 87 % of control (dose: 100.0 mg/kg/injection, schedule: Q01DX Z (ip), vehicle: carboxymethylcellulose (CMC)).

With `O=C1CC(=O)N(c2ccccc2)C(=O)N1`, the T/C is, setting by setting: under setting [12], 99 % of control; under setting [13], 99 % of control; under setting [14], 99 % of control.

Regarding `Cc1nc(N)sc1N=Nc1cc(Br)ccc1Br`, the T/C runs as follows: (dose: 75.0 mg/kg/injection, schedule: Q01DX001 (ip), vehicle: saline) 97 % of control; (dose: 150.0 mg/kg/injection, schedule: Q01DX001 (ip), vehicle: saline) 114 % of control.

For the molecule `CCOC(=O)c1ccc(NC(=O)Nc2cc(C(F)(F)F)ccc2Cl)cc1`, the T/C is 100 % of control under setting [1], 104 % of control under setting [2] and 95 % of control under setting [9].

With `CN1C(=O)OC2(CCN(Cc3ccc([N+](=O)[O-])o3)CC2)C1=O`, the T/C is, setting by setting: under setting [7], 98 % of control; under setting [8], 96 % of control; under setting [10], 98 % of control.

Turning to `Cc1ccc(/C=N\N=C\c2ccc(C)cc2)cc1`, the T/C reads like this: under setting [13], 96 % of control; under setting [14], 91 % of control.

With `O/N=c1/cc(-c2ccc(Cl)cc2)ss1`, the T/C by setting is: (dose: 100.0 mg/kg/injection, schedule: Q01DX009 (ip), vehicle: saline) 91 % of control; (dose: 100.0 mg/kg/injection, schedule: Q04DX003 (ip), vehicle: saline) 93 % of control; (dose: 200.0 mg/kg/injection, schedule: Q01DX009 (ip), vehicle: saline) 89 % of control; (dose: 200.0 mg/kg/injection, schedule: Q04DX003 (ip), vehicle: saline) 95 % of control; (dose: 400.0 mg/kg/injection, schedule: Q01DX009 (ip), vehicle: saline) 96 % of control; (dose: 400.0 mg/kg/injection, schedule: Q04DX003 (ip), vehicle: saline) 97 % of control.

Consider `NNc1ccnc2c1cnn2C1OC(CO)C(O)C1O` (stereo not drawn), for which, where the note is “dose: 50.0 mg/kg/injection, schedule: Q01DX005 (ip), vehicle: other”, the T/C is 105 % of control.

As to `COc1ccc(C(=O)/C=C/c2ccc(OC)c(OC)c2)cc1`, the T/C under setting [7] was 95 % of control, the T/C under setting [8] was 92 % of control and the T/C under setting [10] was 100 % of control.

Regarding `CN=NC(C)(c1ccc(Cl)cc1)C(C)(N=NC)c1ccc(Cl)cc1` (stereo not drawn), the T/C (dose: 17.5 mg/kg/injection, schedule: Q01DX009 (ip), vehicle: Klucel (hydroxypropylcellulose) (HPC)) is 92 % of control; the T/C (dose: 35.0 mg/kg/injection, schedule: Q01DX009 (ip), vehicle: Klucel (hydroxypropylcellulose) (HPC)) was 103 % of control; the T/C (dose: 70.0 mg/kg/injection, schedule: Q01DX009 (ip), vehicle: Klucel (hydroxypropylcellulose) (HPC)) is 100 % of control.

Take `Cc1cc([N+](=O)[O-])c(Nc2ccc(C)c(Cl)c2)c([N+](=O)[O-])c1`: the T/C runs as follows: under setting [6], 93 % of control; under setting [15], 91 % of control; under setting [16], 96 % of control.

On to `CC(C)CCOC(=O)C(O)C(C)(Cl)c1ccccc1` (stereo not drawn), for which the T/C by setting is: under setting [6], 111 % of control; under setting [15], 91 % of control; under setting [16], 100 % of control.

Values taken from PubChem BioAssay AID248 (DTP/NCI, 2004).
